Laboratory results from article PMC12005787, “Synthetic Lethality of SHP2 and XIAP Suppresses Proliferation and Metastasis in KRAS‐mutant Nonsmall Cell Lung Cancer” (Advanced Science, 2025).

What was measured:
[1] = test system: MEK and ERK phosphorylation in NCI‐H2122 and A549 cells; experiment: MEK and ERK phosphorylation (western blotting); assay type: cell-based, human; settings: 24 h
PTP1B = molecular target: T1, PTP1B (Homo sapiens, UniProt P18031); experiment: PTPs activity assay (DiFMUP); assay type: biochemical; settings: read-out: IC50 of PTPs PTP1B
T1 construct: His; made in house; host or cells: E. coli
T1 sequence (P18031 1-435): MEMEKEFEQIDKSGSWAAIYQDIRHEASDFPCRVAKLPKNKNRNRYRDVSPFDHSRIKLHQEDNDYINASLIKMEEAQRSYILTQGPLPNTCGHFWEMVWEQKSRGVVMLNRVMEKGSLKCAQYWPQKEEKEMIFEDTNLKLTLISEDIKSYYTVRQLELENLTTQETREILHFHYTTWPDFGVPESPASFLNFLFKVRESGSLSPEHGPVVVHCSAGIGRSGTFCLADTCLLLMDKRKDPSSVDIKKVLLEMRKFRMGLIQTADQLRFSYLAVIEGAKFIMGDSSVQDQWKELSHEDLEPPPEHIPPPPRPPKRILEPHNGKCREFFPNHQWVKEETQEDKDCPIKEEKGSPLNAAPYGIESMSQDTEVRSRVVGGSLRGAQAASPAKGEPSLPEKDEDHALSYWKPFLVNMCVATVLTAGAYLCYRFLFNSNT
Experimental: (§1) Catalytic activity screening methods for PTPs using candidate compounds were performed as previously described.^[ [77] ^] In brief, soluble fusion PTP proteins, His‐ΔSHP2, encompassing the peptide from amino acids 205–593 retaining PTP activity, His‐ΔSHP2^K325A, His‐ΔSHP1, encompassing the peptide from amino acids 202–595 retaining PTP activity, His‐PTP1B, His‐HePTP, His‐VHR, and His‐TCPTP were cloned, expressed, and purified in E. coli. After determining protein concentration using bicinchoninic acid (BCA) assay kit, 1 µg fusion protein, 10 µM library compound were added in 100 µL reaction mixture (55 mM 4‐(2‐hydroxyethyl)‐1‐piperazineethanesulfonic acid [HEPES], 100 mM sodium chloride [NaCl], 0.5 mM ethylenediaminetetraacetic acid [EDTA], 1 mM dithiothreitol [DTT], 0.01% Triton X‐100, 0.002% bovine serum albumin [BSA], and 0.1% dimethyl sulfoxide [DMSO]) and incubated at 37 °C for 30 min in the dark, with Na3VO4 as positive control. The detection substrate DiFMUP (50 µM) was promptly added to each reaction and functioned at 37 °C for 30 min in the dark. The fluorescence intensity was then measured using Multimode Plate Reader (λa = 358 nm, λe = 455 nm, PerkinElmer, USA).

HePTP = molecular target: T2, HePTP (Homo sapiens, UniProt P35236); experiment: PTPs activity assay (DiFMUP); assay type: biochemical
T2 construct: His; made in house; host or cells: E. coli
T2 sequence (P35236 1-360): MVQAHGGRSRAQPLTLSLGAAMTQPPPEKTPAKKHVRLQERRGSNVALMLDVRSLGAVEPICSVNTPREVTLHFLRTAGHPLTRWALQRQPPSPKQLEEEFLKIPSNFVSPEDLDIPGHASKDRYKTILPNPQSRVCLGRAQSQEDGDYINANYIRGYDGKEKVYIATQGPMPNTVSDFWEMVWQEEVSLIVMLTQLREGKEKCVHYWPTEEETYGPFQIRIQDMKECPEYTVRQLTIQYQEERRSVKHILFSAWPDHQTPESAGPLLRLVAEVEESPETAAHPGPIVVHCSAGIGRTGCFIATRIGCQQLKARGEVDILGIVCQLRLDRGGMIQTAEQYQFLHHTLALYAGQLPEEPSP
Experimental: as §1

ΔSHP1 = molecular target: T3, ΔSHP1 (Homo sapiens, UniProt P29350); experiment: PTPs activity assay (DiFMUP); assay type: biochemical
T3 construct: His‐ΔSHP1, encompassing the peptide from amino acids 202–595 retaining PTP activity; His; made in house; host or cells: E. coli
Experimental: as §1

VHR = molecular target: T4, VHR (Homo sapiens, UniProt P51452); experiment: PTPs activity assay (DiFMUP); assay type: biochemical
T4 construct: His; made in house; host or cells: E. coli
Experimental: as §1

TCPTP = molecular target: T5, TCPTP (Homo sapiens, UniProt P17706); experiment: PTPs activity assay (DiFMUP); assay type: biochemical
T5 construct: His; made in house; host or cells: E. coli
T5 sequence (P17706 1-415): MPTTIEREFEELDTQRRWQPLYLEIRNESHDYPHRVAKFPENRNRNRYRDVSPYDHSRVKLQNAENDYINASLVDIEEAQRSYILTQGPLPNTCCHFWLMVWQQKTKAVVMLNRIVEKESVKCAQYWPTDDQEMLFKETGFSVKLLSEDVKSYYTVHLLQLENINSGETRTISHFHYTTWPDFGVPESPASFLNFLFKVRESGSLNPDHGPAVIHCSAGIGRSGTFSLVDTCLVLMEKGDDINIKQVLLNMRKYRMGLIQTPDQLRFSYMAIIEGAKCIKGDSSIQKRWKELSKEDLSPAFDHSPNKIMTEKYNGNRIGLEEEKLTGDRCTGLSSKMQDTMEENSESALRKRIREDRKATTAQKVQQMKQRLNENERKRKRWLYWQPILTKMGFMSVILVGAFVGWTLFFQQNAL
Experimental: as §1

A549 and NCI‐H2122 cells = experiment: Cell invasion assay; assay type: cell-based, human; settings: embelin 1 and 2.5 µM; 24 h
Experimental: NCI-H2122 and A549 cells were pre-starved in serum-free medium for 24 h and resuspended in serum-free medium containing 5 mg mL-1 BSA. The cell suspension was added to Transwell chambers at a density of 5×105 mL-1, and RPMI-1640 or Ham F-12K medium containing 10% FBS was added to the bottom of the Transwell chambers.
Subsequently, drugs were added to the chambers and incubated at 37 °C for 48 h and cells were then fixed with 4% neutral formaldehyde for 40 min and stained with 0.1% crystal violet for 60 min. The chamber was washed with triple-distilled water, and images were collected using an inverted microscope. […]
Depending on the molecular weight of the proteins, different concentrations of sodium dodecyl-sulfate polyacrylamide gel electrophoresis (SDS-PAGE) separator gels were prepared for protein electrophoresis. Equal amounts of proteins were sampled and subjected to SDS-PAGE gel electrophoresis; at the end of electrophoresis, the proteins were transferred to nitrocellulose (NC) membranes. The NC membrane was blocked with 5% skim milk and covered with a specific primary antibody overnight at 4 °C, in which the primary antibody was diluted at a ratio of 1:500–1:5000. The NC membrane was […]

T3 sequence (P29350 202-595, stated change not applied): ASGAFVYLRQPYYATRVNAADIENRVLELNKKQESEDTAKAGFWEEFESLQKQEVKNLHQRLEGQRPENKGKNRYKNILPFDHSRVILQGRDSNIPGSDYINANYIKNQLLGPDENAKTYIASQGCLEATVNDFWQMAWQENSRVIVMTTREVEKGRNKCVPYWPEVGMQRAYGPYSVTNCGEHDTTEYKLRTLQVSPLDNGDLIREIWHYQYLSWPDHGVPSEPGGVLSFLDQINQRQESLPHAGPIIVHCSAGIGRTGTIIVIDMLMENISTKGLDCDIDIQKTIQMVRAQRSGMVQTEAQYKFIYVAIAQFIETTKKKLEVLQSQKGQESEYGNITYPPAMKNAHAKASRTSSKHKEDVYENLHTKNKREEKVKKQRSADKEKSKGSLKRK
T4 sequence (P51452 whole entry): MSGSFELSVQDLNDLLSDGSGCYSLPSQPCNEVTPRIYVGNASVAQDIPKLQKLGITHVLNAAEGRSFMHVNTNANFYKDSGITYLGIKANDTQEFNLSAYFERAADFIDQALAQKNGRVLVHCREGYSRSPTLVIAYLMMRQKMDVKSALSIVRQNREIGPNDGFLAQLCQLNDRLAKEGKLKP

SMILES | effect on MEK and ERK phosphorylation [1] | IC50 (PTP1B) | IC50 (HePTP) | IC50 (ΔSHP1) | IC50 (VHR) | IC50 (TCPTP) | effect on invasive ability (A549 and NCI‐H2122 cells)
CCCCCCCCCCCC1=C(O)C(=O)C=C(O)C1=O [Embelin] | inhibited MEK and ERK phosphorylation | > 200 µM | > 200 µM | > 200 µM | > 200 µM | > 200 µM | significantly inhibited the invasive ability
O=C1Nc2ccc(I)cc2/C1=C/c1cc(Br)c(O)c(Br)c1 [S2872, GW5074] | – | 110 µM | 472 µM | 246 µM | 131 µM | 322 µM | –
CC1(N)CCN(c2cnc(-c3cccc(Cl)c3Cl)c(N)n2)CC1 [SHP099] | did not affect MEK phosphorylation in A549 cells | – | – | – | – | – | significantly inhibited the invasive ability
